Measurements published in article PMC12525728, “Safety, Pharmacokinetics, Translational and Molecular Mechanistic Insights on the Prostate Cancer Recurrence Suppressor Pseurotin A” (Molecules, 2025).

System: Swiss albino mice
Assay: Hematological and biochemical evaluation after 90-day daily oral dosing
Assay type: in vivo
Details: for HCT / HGB / MCHC / MCV / PLT / RBC-H / WBC-H: mean ± SD; for ALP, plasma / ALT, plasma / AST, plasma / BUN, plasma / CREAT (creatinine), plasma / GLU (glucose), plasma: mean ± SEM
Experimental: For the 90-day daily oral dosing sub-chronic toxicity study, twenty male and twenty female healthy 8-week-old Swiss albino mice were randomly selected and randomized to […] (n = 5/sex/group). Mice received free access to purified drinking water and high-fat diet (HFD) pelleted rodent chow (11.4% total fat, no. 7004, Envigo/Teklad, Madison, WI, USA) until the day before sacrifice, at which time they were fasted for 8 h and allowed only free access to drinking water. Daily doses of PsA (10, 40, 80 mg/kg body weight) were administered to the mice formulated in <5% DMSO (Mediatech Inc., Manassas, VA, USA) and <0.2% Tween 80 (Croda Inc., Princeton, NJ, USA) at a volume not exceeding 1% of body weight by metal oral gavage (2 mm diameter with stainless steel bite protector, 18-gauge, 3.81 cm long). […] The mice were observed weekly until the completion of the study. The body weights of the mice were measured in grams using a Scout^TM Pro (Ohaus Corp., Pine Brook, NJ, USA) on day 0, 4, 8, 11, 14, 21, 28, 35, 42, 49, 56, 63, 70, 77, 83, and 90 after initial treatment. On day 90, all mice were anesthetized using isoflurane (USP-vaporizer method, Matrix VIP-3000, Covetrus, Dublin, OH, USA, exposure of animals in an anesthesia chamber at 3% isoflurane vaporization rate. Exposure time 2 min). Mice were then euthanized by cervical dislocation according to the 2020 AVMA Guidelines on Euthanasia and dissected. Mice organs (brain, liver, kidney, heart, lungs, spleen) were excised and weighed for histopathological examination. The organs were stored in 10% neutral buffered formalin (Avantor Science Central, Allentown, PA, USA) for 24 h and then transferred to 70% ethanol (AAPER ALCOHOL, Shelbyville, KY, USA). This study was performed following the OECD guideline 408 for the testing of chemicals.
On the day of sacrifice, mice were decapitated, and the blood was quickly collected into a green-topped Lithium Heparin 400 µL blood collection tube (BD Microtainer REF# 365965) as well as a purple-topped K2 EDTA (K2E) 500 µL blood collection tube (BD Microtainer, Cat# 365974) to ensure all blood samples were collected free of clots. The Li Heparin samples were immediately centrifuged at 13,000× g for 10 min, and the plasma was transferred to 1.5 mL Eppendorf tubes free of Li heparin for biochemical analysis. Plasma samples were analyzed for AST, ALT, ALP, glucose, BUN, and creatinine levels using the Beckman AU680 clinical chemistry analyzer system (Beckman Coulter, Atlanta, GA, USA). The ETDA samples were analyzed for hematological parameters, and WBC, RBC, Hgb, Hct, MCV, MCHC, and PLT were determined using the Siemens Advia 120 hematology analyzer (Siemens Healthcare Diagnostics Inc., Tarrytown, NY, USA). All blood samples were analyzed at the LSU School of Veterinary Medicine Clinical Pathology Laboratory at Baton Rouge, Louisiana.
Results for the hematological and biochemical parameters were analyzed separately by One-way Analysis of Variance (ANOVA), followed by multiple comparisons with Dunnett’s test. All statistical analyses were performed using GraphPad Prism version 8 software (San Diego, CA, USA). Data in this study were expressed as a mean ± SD (standard deviation) and mean ± SEM (standard error of mean). A probability value of <0.05 was considered statistically significant (* p < 0.05; ** p < 0.01; and *** p < 0.001).

[1] = female, 10mg/kg daily oral 90 days
[2] = female, 40mg/kg daily oral 90 days
[3] = female, 80mg/kg daily oral 90 days
[4] = male and female treatment groups, 90 days
[5] = male, 10mg/kg daily oral 90 days
[6] = male, 40mg/kg daily oral 90 days
[7] = male, 80mg/kg daily oral 90 days

Compound: CC/C=C\[C@H](O)[C@H](O)C1=C(C)C(=O)[C@]2(O1)C(=O)N[C@@](OC)(C(=O)c1ccccc1)[C@@H]2O [PsA, pseurotin A]
- AST level versus control (all male dosing groups, 90 days): significantly lower
- AST level versus control (female treatment groups, 90 days): significant reduction
- HCT [1]: 48.5 ± 6.0%
- HGB [1]: 12.5 ± 0.3 g/dL
- MCHC [1]: 26.2 ± 3.0 g/dL
- MCV [1]: 52.1 ± 5.0 fL
- PLT [1]: 459.0 ± 99.1 103/μL
- RBC-H [1]: 9.3 ± 0.3 106/μL
- WBC-H [1]: 6.5 ± 0.6 103/μL
- ALP, plasma [1]: 78.0 ± 3.8 U/L
- ALT, plasma [1]: 34.3 ± 1.9 U/L
- AST, plasma [1]: 61.7 ± 6.4 U/L
- BUN, plasma [1]: 22.0 ± 0.6 mg/dL
- CREAT (creatinine), plasma [1]: 0.2 ± 0.0 mg/dL
- GLU (glucose), plasma [1]: 291.7 ± 6.5 mg/dL
- ALP, plasma [2]: 68.0 ± 3.8 U/L
- ALT, plasma [2]: 34.5 ± 1.9 U/L
- AST, plasma [2]: 67.8 ± 7.1 U/L
- BUN, plasma [2]: 17.5 ± 0.4 mg/dL
- CREAT (creatinine), plasma [2]: < 0.2 ± 0.0 mg/dL
- GLU (glucose), plasma [2]: 259.0 ± 5.7 mg/dL
- ALP, plasma [3]: 86.8 ± 13.4 U/L
- ALT, plasma [3]: 30.3 ± 3.4 U/L
- AST, plasma [3]: 81.3 ± 17.8 U/L
- BUN, plasma [3]: 18.5 ± 2.1 mg/dL
- CREAT (creatinine), plasma [3]: 0.2 ± 0.0 mg/dL
- GLU (glucose), plasma [3]: 235.3 ± 19.4 mg/dL
- plasma ALT level versus control (female, all three treatment groups, 90 days): significantly lower
- BUN level versus control (male 10 mg/kg, female 40 mg/kg and female 80 mg/kg groups, 90 days): significantly lower
- MCV versus control (male 40 mg/kg group, 90 days): significantly higher
- ALP and plasma glucose levels [4]: no significant changes
- CREAT levels [4]: no significant change
- WBC-H, RBC-H, HGB, HCT, MCHC, PLT versus control (male up to 80 mg/kg, female 10 mg/kg, 90 days): did not show any significant changes
- HCT [5]: 41.0 ± 3.0%
- HGB [5]: 11.8 ± 0.4 g/dL
- MCHC [5]: 28.8 ± 2.5 g/dL
- MCV [5]: 49.6 ± 2.5 fL
- PLT [5]: 555.0 ± 147.7 103/μL
- RBC-H [5]: 8.3 ± 0.6 106/μL
- WBC-H [5]: 4.5 ± 1.0 103/μL
- ALP, plasma [5]: 71.8 ± 4.7 U/L
- ALT, plasma [5]: 28.3 ± 1.7 U/L
- AST, plasma [5]: 57.8 ± 12.8 U/L
- BUN, plasma [5]: 18.3 ± 0.7 mg/dL
- CREAT (creatinine), plasma [5]: 0.2 ± 0.0 mg/dL
- GLU (glucose), plasma [5]: 263.8 ± 9.9 mg/dL
- HCT [6]: 47.4 ± 4.3%
- HGB [6]: 11.9 ± 0.9 g/dL
- MCHC [6]: 25.1 ± 3.3 g/dL
- MCV [6]: 55.4 ± 4.8 fL
- PLT [6]: 413.0 ± 111.2 103/μL
- RBC-H [6]: 8.6 ± 0.8 106/μL
- WBC-H [6]: 5.0 ± 1.8 103/μL
- ALP, plasma [6]: 78.3 ± 5.2 U/L
- ALT, plasma [6]: 28.5 ± 2.5 U/L
- AST, plasma [6]: 42.8 ± 1.9 U/L
- BUN, plasma [6]: 20.5 ± 0.8 mg/dL
- CREAT (creatinine), plasma [6]: 0.2 ± 0.0 mg/dL
- GLU (glucose), plasma [6]: 248.5 ± 12.0 mg/dL
- HCT [7]: 47.8 ± 4.9%
- HGB [7]: 12.5 ± 0.3 g/dL
- MCHC [7]: 26.3 ± 2.2 g/dL
- MCV [7]: 53.3 ± 5.1 fL
- PLT [7]: 580.3 ± 119.8 103/μL
- RBC-H [7]: 9.0 ± 0.1 106/μL
- WBC-H [7]: 7.9 ± 1.4 103/μL
- ALP, plasma [7]: 63.0 ± 3.4 U/L
- ALT, plasma [7]: 48.0 ± 4.8 U/L
- AST, plasma [7]: 48.5 ± 4.50 U/L
- BUN, plasma [7]: 20.3 ± 0.2 mg/dL
- CREAT (creatinine), plasma [7]: 0.2 ± 0.0 mg/dL
- GLU (glucose), plasma [7]: 272.3 ± 15.4 mg/dL
- ALT level versus control (treated males, 90 days): did not show a significant change
